Here are results for nine compounds from ChEMBL document CHEMBL5465560, “Selectivity Literature for EUbOPEN Chemogenomic Library” (2024).

Assay [1] concerns the target Serine/threonine-protein kinase MRCK alpha (Homo sapiens) (UniProt Q5VT25). Conditions: at 10 µM.
For assay [2], the target named is T1, cAMP-dependent protein kinase catalytic subunit PRKX (Homo sapiens) (UniProt P51817).
T1 sequence (whole entry): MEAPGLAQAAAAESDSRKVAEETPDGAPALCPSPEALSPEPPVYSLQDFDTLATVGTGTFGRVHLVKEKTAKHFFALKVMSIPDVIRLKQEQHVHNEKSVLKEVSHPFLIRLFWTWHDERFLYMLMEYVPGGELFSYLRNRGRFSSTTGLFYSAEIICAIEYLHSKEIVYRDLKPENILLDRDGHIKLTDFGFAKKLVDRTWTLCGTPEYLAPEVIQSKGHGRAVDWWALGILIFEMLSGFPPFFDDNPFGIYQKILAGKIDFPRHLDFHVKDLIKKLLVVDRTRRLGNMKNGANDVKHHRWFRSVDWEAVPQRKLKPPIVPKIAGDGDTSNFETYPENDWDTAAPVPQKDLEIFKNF
Nature of the assay: Selectivity interaction (KinomeScan (DiscoverX)) EUB0000695a PRKX. As to conditions: at 100 nM.

For assay [3], the target named is Tyrosine-protein kinase Fgr (Homo sapiens) (UniProt P09769). As to the kind of experiment: Selectivity interaction (KinomeScan (DiscoverX)) EUB0000695a FGR. Conditions: at 100 nM.
Sequence of Tyrosine-protein kinase Fgr (Homo sapiens) (P09769 2-529 limits assumed): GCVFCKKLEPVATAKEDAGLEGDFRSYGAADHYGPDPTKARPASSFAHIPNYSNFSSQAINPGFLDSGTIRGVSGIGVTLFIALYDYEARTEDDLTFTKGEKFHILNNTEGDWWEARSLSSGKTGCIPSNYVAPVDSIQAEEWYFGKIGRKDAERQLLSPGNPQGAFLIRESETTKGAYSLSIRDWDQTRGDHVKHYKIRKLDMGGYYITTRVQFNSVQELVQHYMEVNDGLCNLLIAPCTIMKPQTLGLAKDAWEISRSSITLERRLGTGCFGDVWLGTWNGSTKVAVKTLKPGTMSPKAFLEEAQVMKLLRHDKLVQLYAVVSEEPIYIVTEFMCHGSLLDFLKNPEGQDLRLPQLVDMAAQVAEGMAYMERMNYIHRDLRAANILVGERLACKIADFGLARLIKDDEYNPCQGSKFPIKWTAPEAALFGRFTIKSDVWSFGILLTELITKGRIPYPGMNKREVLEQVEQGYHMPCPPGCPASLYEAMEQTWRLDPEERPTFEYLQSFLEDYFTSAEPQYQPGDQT
Assay [4] addresses Tyrosine-protein kinase JAK1 (Homo sapiens, UniProt P23458). Nature of the assay: Selectivity interaction (KinomeScan (DiscoverX)) EUB0000695a JAK1. Conditions: at 100 nM.
For assay [5], the target named is Cyclin-dependent kinase 7 (Homo sapiens, UniProt P50613). As to the kind of experiment: Selectivity interaction (KinomeScan (DiscoverX)) EUB0000045b CDK7.
Sequence of Cyclin-dependent kinase 7 (P50613 whole entry): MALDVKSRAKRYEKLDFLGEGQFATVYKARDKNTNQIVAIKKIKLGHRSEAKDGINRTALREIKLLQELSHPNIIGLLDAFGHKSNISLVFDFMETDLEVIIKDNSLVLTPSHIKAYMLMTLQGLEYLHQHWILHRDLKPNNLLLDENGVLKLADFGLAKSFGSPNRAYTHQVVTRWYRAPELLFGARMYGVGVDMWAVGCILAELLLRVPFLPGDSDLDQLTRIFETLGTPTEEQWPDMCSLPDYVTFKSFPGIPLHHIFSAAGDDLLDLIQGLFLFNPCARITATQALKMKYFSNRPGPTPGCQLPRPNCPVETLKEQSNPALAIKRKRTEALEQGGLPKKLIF
Assay [6] has as its target T2, Serine/threonine-protein kinase D3 (Homo sapiens) (UniProt O94806).
T2 sequence (whole entry): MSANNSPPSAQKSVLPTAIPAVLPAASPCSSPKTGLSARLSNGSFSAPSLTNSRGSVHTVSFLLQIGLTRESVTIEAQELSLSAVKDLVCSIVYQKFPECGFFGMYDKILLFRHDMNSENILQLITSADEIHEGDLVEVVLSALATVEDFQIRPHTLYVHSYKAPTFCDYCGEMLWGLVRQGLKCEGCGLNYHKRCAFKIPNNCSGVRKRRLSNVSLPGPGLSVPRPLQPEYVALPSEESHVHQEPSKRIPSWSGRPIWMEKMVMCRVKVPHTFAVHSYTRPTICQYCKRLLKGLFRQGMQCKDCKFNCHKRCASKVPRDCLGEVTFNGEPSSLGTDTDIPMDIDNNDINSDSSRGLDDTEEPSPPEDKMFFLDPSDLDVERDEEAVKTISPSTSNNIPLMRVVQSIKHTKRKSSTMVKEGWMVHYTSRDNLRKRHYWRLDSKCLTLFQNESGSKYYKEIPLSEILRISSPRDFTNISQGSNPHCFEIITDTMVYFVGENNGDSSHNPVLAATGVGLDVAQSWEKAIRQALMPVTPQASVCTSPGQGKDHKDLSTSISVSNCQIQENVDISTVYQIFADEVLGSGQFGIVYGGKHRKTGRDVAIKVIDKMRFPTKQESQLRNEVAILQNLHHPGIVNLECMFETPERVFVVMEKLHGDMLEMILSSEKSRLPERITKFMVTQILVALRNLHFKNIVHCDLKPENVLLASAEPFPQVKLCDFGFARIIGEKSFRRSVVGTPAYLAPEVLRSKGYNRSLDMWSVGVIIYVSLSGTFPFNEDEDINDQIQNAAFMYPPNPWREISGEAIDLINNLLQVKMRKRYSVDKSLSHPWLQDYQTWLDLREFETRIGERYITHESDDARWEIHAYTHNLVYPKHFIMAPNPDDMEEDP
Nature of the assay: Selectivity interaction (Kinase panel (Z-LYTE Assay)) EUB0001632a PRKD3. As to conditions: at 10 µM.

Assay [7] concerns the target Protein kinase C gamma type (Homo sapiens) (UniProt P05129). As to the kind of experiment: Selectivity interaction (Kinase panel (Z-LYTE Assay)) EUB0001632a PRKCG. Conditions: at 10 µM.
Assay [8] addresses T3, Calcium/calmodulin-dependent protein kinase type IV (Homo sapiens) (UniProt Q16566).
T3 sequence (whole entry): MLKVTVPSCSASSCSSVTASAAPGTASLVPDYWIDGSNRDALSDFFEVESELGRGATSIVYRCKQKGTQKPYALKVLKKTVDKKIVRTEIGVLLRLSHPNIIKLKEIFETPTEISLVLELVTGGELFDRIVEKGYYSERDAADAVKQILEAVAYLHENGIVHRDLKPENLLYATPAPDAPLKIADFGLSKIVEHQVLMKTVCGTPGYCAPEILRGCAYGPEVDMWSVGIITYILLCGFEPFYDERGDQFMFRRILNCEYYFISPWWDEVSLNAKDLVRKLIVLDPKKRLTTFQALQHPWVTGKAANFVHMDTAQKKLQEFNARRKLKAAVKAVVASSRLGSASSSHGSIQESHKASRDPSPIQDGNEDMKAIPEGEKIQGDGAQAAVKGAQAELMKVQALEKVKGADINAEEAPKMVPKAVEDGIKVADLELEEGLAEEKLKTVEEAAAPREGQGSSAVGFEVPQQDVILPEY
As to the kind of experiment: Selectivity interaction (KinomeScan (DiscoverX)) EUB0000607a CAMK4. Conditions: at 10 µM.

Assay [9] relates to Tyrosine-protein kinase ABL1 (Homo sapiens), P00519 [F317I]. Nature of the assay: Selectivity interaction (KinomeScan (DiscoverX)) EUB0000607a ABL1. Conditions: at 10 µM.
Sequence of Tyrosine-protein kinase ABL1 (Homo sapiens), P00519 [F317I] (P00519 whole entry F317I): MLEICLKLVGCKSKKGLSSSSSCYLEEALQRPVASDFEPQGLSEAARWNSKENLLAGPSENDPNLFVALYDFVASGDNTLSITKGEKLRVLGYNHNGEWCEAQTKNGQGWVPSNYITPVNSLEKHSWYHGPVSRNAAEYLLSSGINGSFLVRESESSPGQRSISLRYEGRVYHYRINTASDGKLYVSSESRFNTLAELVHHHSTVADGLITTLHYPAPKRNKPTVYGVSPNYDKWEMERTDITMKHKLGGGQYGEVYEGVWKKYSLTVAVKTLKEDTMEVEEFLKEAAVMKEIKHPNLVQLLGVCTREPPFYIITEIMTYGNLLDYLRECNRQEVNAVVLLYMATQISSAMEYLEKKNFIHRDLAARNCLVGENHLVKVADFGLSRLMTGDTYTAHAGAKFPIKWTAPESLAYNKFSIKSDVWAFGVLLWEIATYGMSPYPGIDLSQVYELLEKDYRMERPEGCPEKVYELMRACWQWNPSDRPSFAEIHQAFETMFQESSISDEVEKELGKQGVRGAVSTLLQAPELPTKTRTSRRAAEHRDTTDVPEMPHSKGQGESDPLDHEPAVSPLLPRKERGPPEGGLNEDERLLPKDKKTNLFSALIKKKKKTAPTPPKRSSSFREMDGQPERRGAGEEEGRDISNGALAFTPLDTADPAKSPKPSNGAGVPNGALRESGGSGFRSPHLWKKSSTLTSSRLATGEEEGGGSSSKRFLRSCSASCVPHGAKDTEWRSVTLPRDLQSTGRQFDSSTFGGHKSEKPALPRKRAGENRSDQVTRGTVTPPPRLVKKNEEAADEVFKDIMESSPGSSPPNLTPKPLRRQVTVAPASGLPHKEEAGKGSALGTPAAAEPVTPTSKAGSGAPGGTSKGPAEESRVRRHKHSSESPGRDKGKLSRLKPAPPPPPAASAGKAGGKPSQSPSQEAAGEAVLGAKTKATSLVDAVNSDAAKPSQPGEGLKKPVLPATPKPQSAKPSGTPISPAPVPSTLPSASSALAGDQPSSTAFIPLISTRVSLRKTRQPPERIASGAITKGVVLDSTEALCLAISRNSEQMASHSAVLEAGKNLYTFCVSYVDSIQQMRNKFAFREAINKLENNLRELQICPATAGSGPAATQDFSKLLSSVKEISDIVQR
Assay [10] addresses Tyrosine-protein kinase CSK (Homo sapiens) (UniProt P41240). As to the kind of experiment: Selectivity interaction (ActivX KiNativ screen (kinase selectivity in THP-1 cell lysates)) EUB0000639a CSK. Format: subcellular. Conditions: lysate, at 5 µM.
For assay [11], the target named is T4, Dual specificity mitogen-activated protein kinase kinase 4 (Homo sapiens) (UniProt P45985).
T4 sequence (whole entry): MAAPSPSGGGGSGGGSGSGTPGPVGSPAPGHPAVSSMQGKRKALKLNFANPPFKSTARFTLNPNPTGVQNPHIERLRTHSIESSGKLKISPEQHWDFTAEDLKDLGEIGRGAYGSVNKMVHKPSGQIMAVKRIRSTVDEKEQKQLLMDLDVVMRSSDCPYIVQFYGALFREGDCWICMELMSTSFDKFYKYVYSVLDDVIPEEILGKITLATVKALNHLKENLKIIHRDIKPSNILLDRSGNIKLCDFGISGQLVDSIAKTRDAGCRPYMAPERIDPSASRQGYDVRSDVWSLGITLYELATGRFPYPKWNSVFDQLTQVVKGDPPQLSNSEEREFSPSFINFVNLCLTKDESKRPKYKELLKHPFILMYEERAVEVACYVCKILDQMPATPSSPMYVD
Nature of the assay: Selectivity interaction (KinomeScan (DiscoverX)) EUB0000229b MAP2K4. As to conditions: at 10 µM.

The target in assay [12] is Dual specificity tyrosine-phosphorylation-regulated kinase 1B (Homo sapiens, UniProt Q9Y463). Nature of the assay: Selectivity interaction (KinomeScan (DiscoverX)) EUB0000595a DYRK1B. As to conditions: at 10 µM.
Sequence of Dual specificity tyrosine-phosphorylation-regulated kinase 1B (Q9Y463 whole entry, looked up): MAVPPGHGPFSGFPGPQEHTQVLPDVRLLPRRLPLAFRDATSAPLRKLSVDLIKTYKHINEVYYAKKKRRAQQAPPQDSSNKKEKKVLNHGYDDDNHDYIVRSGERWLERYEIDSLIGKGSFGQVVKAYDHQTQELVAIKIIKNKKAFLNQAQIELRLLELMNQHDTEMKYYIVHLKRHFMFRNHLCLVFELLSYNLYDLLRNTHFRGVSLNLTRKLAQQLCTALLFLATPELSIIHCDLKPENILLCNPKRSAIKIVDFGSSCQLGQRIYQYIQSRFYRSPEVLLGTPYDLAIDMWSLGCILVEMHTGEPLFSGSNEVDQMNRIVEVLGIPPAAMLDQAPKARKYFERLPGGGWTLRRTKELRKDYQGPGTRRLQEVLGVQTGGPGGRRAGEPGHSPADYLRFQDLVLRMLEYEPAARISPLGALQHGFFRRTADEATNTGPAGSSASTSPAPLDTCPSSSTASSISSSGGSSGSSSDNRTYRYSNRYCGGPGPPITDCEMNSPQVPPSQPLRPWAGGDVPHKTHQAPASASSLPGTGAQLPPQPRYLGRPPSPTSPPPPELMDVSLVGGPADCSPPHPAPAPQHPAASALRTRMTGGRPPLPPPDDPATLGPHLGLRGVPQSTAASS
Assay [13] addresses Serine/threonine-protein kinase 25 (Homo sapiens) (UniProt O00506). Nature of the assay: Selectivity interaction (KinomeScan (DiscoverX)) EUB0000618a STK25. As to conditions: at 10 µM.

Sequence of Serine/threonine-protein kinase 25 (Homo sapiens) (O00506 whole entry, looked up): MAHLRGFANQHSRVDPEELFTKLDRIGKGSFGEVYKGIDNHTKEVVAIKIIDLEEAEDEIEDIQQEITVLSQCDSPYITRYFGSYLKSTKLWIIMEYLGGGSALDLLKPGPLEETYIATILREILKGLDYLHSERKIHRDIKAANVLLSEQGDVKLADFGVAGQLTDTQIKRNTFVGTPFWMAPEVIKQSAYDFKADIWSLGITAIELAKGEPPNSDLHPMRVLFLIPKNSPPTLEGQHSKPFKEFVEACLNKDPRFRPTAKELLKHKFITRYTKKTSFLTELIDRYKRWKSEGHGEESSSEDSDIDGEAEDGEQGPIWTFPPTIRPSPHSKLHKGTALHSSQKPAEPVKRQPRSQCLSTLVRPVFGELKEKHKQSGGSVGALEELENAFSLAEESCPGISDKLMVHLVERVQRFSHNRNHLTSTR
Sequence of Tyrosine-protein kinase CSK (Homo sapiens) (P41240 2-450 limits assumed): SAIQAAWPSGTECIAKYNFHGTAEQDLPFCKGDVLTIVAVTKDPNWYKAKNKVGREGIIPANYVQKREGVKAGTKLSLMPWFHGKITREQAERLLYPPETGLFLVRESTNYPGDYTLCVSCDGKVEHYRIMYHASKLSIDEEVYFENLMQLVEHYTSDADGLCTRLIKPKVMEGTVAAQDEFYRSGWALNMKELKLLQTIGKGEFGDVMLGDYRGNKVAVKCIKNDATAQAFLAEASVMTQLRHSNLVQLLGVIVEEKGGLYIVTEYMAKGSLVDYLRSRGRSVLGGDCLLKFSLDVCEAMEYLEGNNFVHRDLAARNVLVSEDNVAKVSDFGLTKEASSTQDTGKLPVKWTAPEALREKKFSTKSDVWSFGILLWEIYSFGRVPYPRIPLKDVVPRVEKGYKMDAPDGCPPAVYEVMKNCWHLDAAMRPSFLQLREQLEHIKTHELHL

In assay [1], `CCN(CC)CCCCNc1ncc2cc(-c3cc(OC)cc(OC)c3)c(NC(=O)NC(C)(C)C)nc2n1` gave a % of control of 100%.
Take `Cc1cc(F)c(C(=O)Nc2cccc(-c3nncn3C(C)C)n2)cc1-n1cnc(C2CC2)c1`: the figures for the % of control in [2], in assay [3] and in assay [4] were 100%, 96% and 60%, respectively.
Consider `C=CC(=O)Nc1cc(-n2c(=O)ccc3cnc4ccc(-c5ccc(NS(C)(=O)=O)cc5)cc4c32)ccc1C`, for which the results for the % of control in [5] (at 1 µM) and in [5] (at 10 µM) were 79% and 26%, respectively.
Take `Cn1cc(-n2cnc3c(NCc4nc5cc(Cl)c(Cl)cc5[nH]4)nc(N4CCOCC4)nc32)cn1`: the results for the % of control in assay [6] and in assay [7] were 1.79% and 11.7%, respectively.
`CNC(=O)Nc1ccc(-c2nc(N3CC4CCC(C3)O4)c3cnn(C4CCC5(CC4)OCCO5)c3n2)cc1`: the % of control in [8] and in [9] was 100% each time.
On to `CC[C@@H]1[C@H](F)C(=O)N[C@@H]1COc1nccc2cc(C(N)=O)c(OC)cc12` [ZIMLOVISERTIB], for which the % of inhibition in assay [10] was -2.6%.
`COc1cc(N(C)c2ccnc3ccc(C(F)(F)F)cc23)cc(OC)c1OC` came in with a % binding in assay [11] of 100%.
On to `COCC(=O)NC/C=C/c1ccc2ncnc(Nc3ccc(Oc4ccc(C)nc4)c(C)c3)c2c1` [CP-724714], for which, in [12], the % of control is 92%.
Consider `O[C@H]1CC[C@H](Nc2ncc3nc(Nc4c(F)cc(F)cc4F)n([C@H]4CCOC4)c3n2)CC1`, for which, in assay [13], the % of control was 64%.
